Reference: patent US20130143902A1, “COMPOSITIONS AND METHODS OF TREATING A PROLIFERATIVE DISEASE WITH A QUINAZOLINONE DERIVATIVE” (GILEAD CALISTOGA LLC, priority 2011, published 2013)

Columns and labels:
PI3K p110β [1] = target: T1, PI3K p110β (Mus musculus, UniProt Q8BTI9); assay: Cellular p110β signaling: LPA-stimulated MEFs, pAkt Western blot; assay type: cell-based, murine; settings: cellular assay, read-out: EC50 p110β
T1 construct: endogenous in cells; host or cells: murine embryo fibroblasts (MEFs)
T1 sequence (Q8BTI9 whole entry): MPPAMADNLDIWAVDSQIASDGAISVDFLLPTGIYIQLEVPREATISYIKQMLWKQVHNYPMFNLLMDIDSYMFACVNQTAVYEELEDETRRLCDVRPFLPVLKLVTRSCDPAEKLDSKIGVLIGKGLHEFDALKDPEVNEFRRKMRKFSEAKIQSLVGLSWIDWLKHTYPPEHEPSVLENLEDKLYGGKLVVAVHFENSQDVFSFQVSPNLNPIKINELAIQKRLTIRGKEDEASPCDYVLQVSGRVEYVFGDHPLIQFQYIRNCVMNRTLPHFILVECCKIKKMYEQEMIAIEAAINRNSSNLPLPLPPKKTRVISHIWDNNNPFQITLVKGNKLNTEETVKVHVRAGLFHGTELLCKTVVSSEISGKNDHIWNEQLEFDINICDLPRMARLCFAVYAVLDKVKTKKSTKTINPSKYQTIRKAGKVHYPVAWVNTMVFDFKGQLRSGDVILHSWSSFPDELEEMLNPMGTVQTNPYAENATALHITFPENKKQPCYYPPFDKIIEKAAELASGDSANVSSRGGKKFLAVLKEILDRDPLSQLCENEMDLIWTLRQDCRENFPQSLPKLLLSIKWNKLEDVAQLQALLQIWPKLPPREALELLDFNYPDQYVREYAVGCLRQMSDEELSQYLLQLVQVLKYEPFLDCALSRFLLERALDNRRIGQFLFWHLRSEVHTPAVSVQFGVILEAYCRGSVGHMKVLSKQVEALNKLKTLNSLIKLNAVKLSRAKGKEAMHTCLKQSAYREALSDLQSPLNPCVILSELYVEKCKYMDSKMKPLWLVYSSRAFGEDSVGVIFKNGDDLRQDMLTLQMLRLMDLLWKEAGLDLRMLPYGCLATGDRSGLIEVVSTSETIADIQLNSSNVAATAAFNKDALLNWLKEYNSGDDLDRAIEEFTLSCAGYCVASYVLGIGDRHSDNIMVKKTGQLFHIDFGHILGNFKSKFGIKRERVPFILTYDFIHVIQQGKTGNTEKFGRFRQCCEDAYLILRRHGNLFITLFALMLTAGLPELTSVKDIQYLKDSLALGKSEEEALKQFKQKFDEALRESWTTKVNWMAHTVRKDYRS
T1 sequence (P26450 whole entry partner): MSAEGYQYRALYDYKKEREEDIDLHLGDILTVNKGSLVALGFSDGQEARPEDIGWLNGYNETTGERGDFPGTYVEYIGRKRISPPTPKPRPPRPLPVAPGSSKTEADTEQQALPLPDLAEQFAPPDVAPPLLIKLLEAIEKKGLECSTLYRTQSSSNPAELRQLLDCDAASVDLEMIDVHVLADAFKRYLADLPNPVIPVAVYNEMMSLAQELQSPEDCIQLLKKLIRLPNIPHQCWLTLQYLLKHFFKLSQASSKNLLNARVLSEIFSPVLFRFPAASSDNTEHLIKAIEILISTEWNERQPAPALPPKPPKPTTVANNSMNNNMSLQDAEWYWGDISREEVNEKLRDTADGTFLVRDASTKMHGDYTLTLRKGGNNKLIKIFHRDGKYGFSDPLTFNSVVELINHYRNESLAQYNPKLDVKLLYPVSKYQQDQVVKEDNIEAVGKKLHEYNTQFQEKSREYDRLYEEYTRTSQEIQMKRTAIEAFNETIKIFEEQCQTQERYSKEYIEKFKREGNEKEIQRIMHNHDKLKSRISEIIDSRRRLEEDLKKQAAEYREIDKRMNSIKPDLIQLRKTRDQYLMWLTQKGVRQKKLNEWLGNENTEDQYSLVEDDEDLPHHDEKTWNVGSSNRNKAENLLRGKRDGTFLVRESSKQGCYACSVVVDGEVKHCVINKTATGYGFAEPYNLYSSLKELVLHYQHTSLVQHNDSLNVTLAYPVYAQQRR
Procedure: (§2) To analyze PI3K p110α and p110β signaling, murine embryo fibroblast (MEFs) were removed from FBS and starved for 2 hours followed by stimulation with 10 ng/mL of PDGF (Cell Signaling Technologies, Danvers, Mass.) or 10 μM of LPA (Echelon, Salt Lake City, Utah) for 10 minutes at 37° C., respectively. After washing once in cold phosphate-buffered saline (PBS), the cell pellet was resuspended in 1× cell lysis buffer (Cell Signaling Technologies) supplemented with mini protease inhibitor mix (Roche, Indianapolis, Ind.), phosphate inhibitor cocktail set I and II (Calbiochem, San Diego, Calif.) for 15 minutes on ice. Whole-cell lysates were obtained by centrifugation at 16,000 g for 10 minutes at 4° C., and the soluble protein was analyzed by Western blotting for Akt and pAkt levels. To analyze PI3K p110δ and p110γ signaling, basophil activation was measured in isolated PBMC or whole blood using the Flow2 CAST kit according to the manufacture's standardized methods (Buhlman Laboratories AG, Switzerland). Briefly, p110δ was activated with anti-FCεRI and p110γ was activated with fMLP (2 μM) in the absence or presence of compounds. To monitor the basophil cell population and cellular activation, anti-CD63-FITC and anti-CCR3-PE antibodies were added to each sample. Cells were fixed and analyzed on a FC500 MPL flow cytometer (Beckman Coulter, Brea, Calif.).

B Cell Malignancies = assay: Cellular viability, B cell malignancies; assay type: cell-based; settings: N = 7
Description: (§1) Cellular viability and pAkt activity were used to determine effects of Compounds A, C, and D in solid tumor, B-cell malignancies, and T-cell malignancies.

PI3K p110α [2] = target: PI3K p110α (Mus musculus, UniProt P42337); assay: Cellular p110α signaling: PDGF-stimulated MEFs, pAkt Western blot; assay type: cell-based, murine; settings: cellular assay, MEFs, PDGF; read-out: EC50 p110α
PI3K p110α (Mus musculus, UniProt P42337), sequence (P42337 whole entry): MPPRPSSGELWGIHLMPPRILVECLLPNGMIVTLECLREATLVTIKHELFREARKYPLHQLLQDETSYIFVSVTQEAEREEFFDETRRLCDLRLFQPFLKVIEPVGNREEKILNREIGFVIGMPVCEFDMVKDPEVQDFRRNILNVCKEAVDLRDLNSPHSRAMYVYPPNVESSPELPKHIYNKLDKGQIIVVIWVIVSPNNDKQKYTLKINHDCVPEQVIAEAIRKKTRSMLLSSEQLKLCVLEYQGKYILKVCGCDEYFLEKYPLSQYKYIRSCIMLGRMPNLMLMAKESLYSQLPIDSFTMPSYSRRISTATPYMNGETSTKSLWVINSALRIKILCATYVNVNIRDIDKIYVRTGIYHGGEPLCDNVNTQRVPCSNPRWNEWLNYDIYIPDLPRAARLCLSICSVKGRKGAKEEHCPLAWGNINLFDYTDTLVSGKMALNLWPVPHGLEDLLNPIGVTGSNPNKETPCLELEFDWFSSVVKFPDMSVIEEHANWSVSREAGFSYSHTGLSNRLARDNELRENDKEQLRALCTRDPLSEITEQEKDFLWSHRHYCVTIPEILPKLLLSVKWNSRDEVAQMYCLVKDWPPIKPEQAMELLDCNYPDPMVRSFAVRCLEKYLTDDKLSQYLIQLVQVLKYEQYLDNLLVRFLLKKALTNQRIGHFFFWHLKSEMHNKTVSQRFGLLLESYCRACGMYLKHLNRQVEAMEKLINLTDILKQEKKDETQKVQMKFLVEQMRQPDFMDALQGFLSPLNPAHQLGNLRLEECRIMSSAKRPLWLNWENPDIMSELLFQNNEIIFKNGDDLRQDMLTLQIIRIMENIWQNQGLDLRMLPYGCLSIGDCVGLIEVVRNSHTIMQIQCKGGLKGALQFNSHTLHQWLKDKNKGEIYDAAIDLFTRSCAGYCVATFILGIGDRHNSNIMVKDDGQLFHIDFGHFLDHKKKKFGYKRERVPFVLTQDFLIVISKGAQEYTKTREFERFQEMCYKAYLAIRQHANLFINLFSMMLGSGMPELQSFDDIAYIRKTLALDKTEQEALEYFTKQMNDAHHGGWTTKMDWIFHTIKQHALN
PI3K p110α (Mus musculus, UniProt P42337), sequence (P26450 whole entry partner): as the sequence (P26450 whole entry partner) above
Procedure: as §2

Solid tumor = assay: Cellular viability, solid tumor; assay type: cell-based; settings: N = 14
Procedure: For primary T-ALL samples, cell viability was determined using the BD Cell Viability kit (BD Biosciences) and fluorescent counting beads as previously described in Armstrong, F. et al., NOTCH is a key regulator of human T-cell acute leukemia initiating cell activity, Blood 113, 1730-1740 (2009). Cells were plated with MS5-DL1 stroma cells. After 72 hours following treatment, cells were harvested and stained with an APC-conjugated anti-human CD45 according to the manufacturer's instructions. For solid tumor cell lines, cellular viability was determined using the AlamarBlue kit (Invitrogen). About 10,000 cells in 100 μL of media containing 10% FBS were aliquoted into individual wells of a 96-well plate and treated with vehicle (DMSO) or compound in triplicate for 24 hours. Ten μL of AlamarBlue reagent was added to each well and incubated for 4 hours at 37° C. with 5% CO2. Fluorescence was measured with an excitation wavelength at 530 to 560 nm and emission wavelength at 590 nm using Spectramax M5 plate reader (Molecular Devices, Sunnyvale, Calif.).
as §1

[3] = system: pAkt in B Cell Malignancies; assay: pAkt activity, B cell malignancies; assay type: cell-based; settings: N = 7
Description: as §1

T Cell Malignancies = assay: Cellular viability, T cell malignancies; assay type: cell-based; settings: N = 7
Description: as §1

PI3K p110β [4] = target: T2, PI3K p110β (Homo sapiens, UniProt P42338); assay: SelectScreen in vitro kinase inhibitor assay, p110β; assay type: biochemical
T2 construct: purchased Invitrogen Ltd. (SelectScreen service)

pAkt in solid tumor = assay: pAkt activity, solid tumor; assay type: cell-based; settings: N = 14
Description: as §1

PI3Kγ (p110γ) = target: T3, PI3Kγ (p110γ) (Homo sapiens, UniProt P48736); assay: TR-FRET enzymatic assay, PI3Kγ; assay type: biochemical; settings: 2×Km ATP, geometric mean of at least four determinations
T3 construct: made in house
T3 sequence (P48736 whole entry, species assumed): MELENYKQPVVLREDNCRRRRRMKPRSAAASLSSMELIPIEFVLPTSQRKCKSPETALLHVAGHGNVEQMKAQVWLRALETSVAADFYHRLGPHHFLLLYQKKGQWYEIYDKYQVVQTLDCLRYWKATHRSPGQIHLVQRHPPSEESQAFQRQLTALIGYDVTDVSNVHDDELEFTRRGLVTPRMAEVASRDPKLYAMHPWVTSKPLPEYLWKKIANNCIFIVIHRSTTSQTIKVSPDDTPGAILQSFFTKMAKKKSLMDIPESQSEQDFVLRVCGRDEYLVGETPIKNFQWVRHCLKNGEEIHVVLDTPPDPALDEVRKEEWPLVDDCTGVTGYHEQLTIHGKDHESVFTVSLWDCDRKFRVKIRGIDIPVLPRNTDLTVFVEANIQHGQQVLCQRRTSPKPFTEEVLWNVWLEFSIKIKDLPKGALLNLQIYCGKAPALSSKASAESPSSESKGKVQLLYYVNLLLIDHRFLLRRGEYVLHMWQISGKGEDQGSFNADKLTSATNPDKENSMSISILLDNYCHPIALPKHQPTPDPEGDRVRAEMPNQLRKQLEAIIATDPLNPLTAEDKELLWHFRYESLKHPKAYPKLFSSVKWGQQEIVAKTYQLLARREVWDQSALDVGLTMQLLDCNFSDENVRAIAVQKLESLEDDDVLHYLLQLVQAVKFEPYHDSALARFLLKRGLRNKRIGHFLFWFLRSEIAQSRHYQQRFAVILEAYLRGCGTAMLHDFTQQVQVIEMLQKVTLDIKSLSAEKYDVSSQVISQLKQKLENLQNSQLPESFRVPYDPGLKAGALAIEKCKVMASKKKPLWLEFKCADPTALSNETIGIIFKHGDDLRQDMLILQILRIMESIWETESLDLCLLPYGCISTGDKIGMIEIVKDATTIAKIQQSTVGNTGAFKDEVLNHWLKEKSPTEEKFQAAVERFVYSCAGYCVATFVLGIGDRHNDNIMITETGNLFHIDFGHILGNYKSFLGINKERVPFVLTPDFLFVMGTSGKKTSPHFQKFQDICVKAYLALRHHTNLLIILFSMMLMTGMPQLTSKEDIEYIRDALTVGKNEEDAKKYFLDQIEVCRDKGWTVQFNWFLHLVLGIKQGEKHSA
Procedure: (§3) Enzymatic activity of the class I PI3K isoforms was measured using a time resolved fluorescence resonance energy transfer assay (TR-FRET) that monitors formation of the product 3,4,5-inositol triphosphate molecule (PIP3), as it competes with fluorescently labeled PIP3 for binding to the GRP-1 pleckstrin homology domain protein. An increase in phosphatidylinositide 3-phosphate product results in a decrease in TR-FRET signal as the labeled fluorophore is displaced from the GRP-1 protein binding site. Class I PI3K isoforms were expressed and purified as heterodimeric recombinant proteins. All assay reagents and buffers for the TR-FRET assay were purchased from Millipore. […] After an assay reaction time of 30 minutes at 25° C., reactions were terminated with a final concentration of 10 mM EDTA, 10 nM labeled-PIP3, and 35 nM Europium labeled GRP-1 detector protein before reading TR-FRET on an Envision plate reader. IC50 values were calculated from the fit of the dose-response curves to a four-parameter equation. All IC50 values represent geometric mean values of a minimum of four determinations. These assays generally produced results within 3-fold of the reported mean.

PI3Kδ (p110δ) = target: T4, PI3Kδ (p110δ) (Homo sapiens, UniProt O00329); assay: TR-FRET enzymatic assay, PI3Kδ; assay type: biochemical
T4 construct: made in house
Procedure: as §3

PI3K p110γ [5] = target: T5, PI3K p110γ (Homo sapiens, UniProt P48736); assay: SelectScreen in vitro kinase inhibitor assay, p110γ; assay type: biochemical; settings: ATP at Km
T5 sequence (P48736 whole entry): as the sequence (P48736 whole entry, species assumed) above

PI3K p110α [6] = target: PI3K p110α (Homo sapiens, UniProt P42336); assay: biochemical
[7] = system: pAkt in T Cell Malignancies; assay: pAkt activity, T cell malignancies; assay type: cell-based; settings: N = 7
Description: as §1

PI3K p110δ [8] = target: T6, PI3K p110δ (Homo sapiens, UniProt O00329); assay: SelectScreen in vitro kinase inhibitor assay, p110δ; assay type: biochemical
T6 construct: endogenous in cells; host or cells: basophils in isolated PBMC or whole blood

PI3Kα (p110α) = PI3Kα (p110α) (Homo sapiens, UniProt P42336); assay: biochemical
Procedure: Enzymatic activity of the class I PI3K isoforms was measured using a time resolved fluorescence resonance energy transfer assay (TR-FRET) that monitors formation of the product 3,4,5-inositol triphosphate molecule (PIP3), as it competes with fluorescently labeled PIP3 for binding to the GRP-1 pleckstrin homology domain protein. An increase in phosphatidylinositide 3-phosphate product results in a decrease in TR-FRET signal as the labeled fluorophore is displaced from the GRP-1 protein binding site. Class I PI3K isoforms were expressed and purified as heterodimeric recombinant proteins. All assay reagents and buffers for the TR-FRET assay were purchased from Millipore. […] IC50 values were calculated from the fit of the dose-response curves to a four-parameter equation. All IC50 values represent geometric mean values of a minimum of four determinations. These assays generally produced results within 3-fold of the reported mean.

PI3K p110δ [9] = target: T6, PI3K p110δ; assay: Cellular p110δ signaling: basophil activation with anti-FCεRI (Flow2 CAST); assay type: cell-based; settings: cellular assay
Procedure: as §2

PI3Kβ (p110 β) = target: T7, PI3Kβ (p110 β) (Homo sapiens, UniProt P42338); assay: TR-FRET enzymatic assay, PI3Kβ; assay type: biochemical
T7 construct: made in house
Procedure: as §3

PI3K p110γ [10] = target: T5, PI3K p110γ; assay: Cellular p110γ signaling: basophil activation with fMLP (Flow2 CAST); assay type: cell-based; parameters: endogenous in cells; host or cells: basophils in isolated PBMC or whole blood; settings: cellular assay
Procedure: as §2

SMILES	EC50 (PI3K p110β [1])	EC50 (B Cell Malignancies)	EC50 (PI3K p110α [2])	EC50 (Solid tumor)	EC50 [3]	EC50 (T Cell Malignancies)	IC50 (PI3K p110β [4])	EC50 (pAkt in solid tumor)	IC50 (PI3Kγ (p110γ))	IC50 (PI3Kδ (p110δ))	IC50 (PI3K p110γ [5])	IC50 (PI3K p110α [6])	EC50 [7]	IC50 (PI3K p110δ [8])	IC50 (PI3Kα (p110α))	EC50 (PI3K p110δ [9])	IC50 (PI3Kβ (p110 β))	EC50 (PI3K p110γ [10])
CC[C@H](Nc1ncnc2[nH]cnc12)c1nc2cccc(F)c2c(=O)n1-c1ccccc1 [Compound C]	1.9 µM	0.662 µM	> 20 µM	11.4 µM	0.367 µM	> 25 µM												
C[C@H](Nc1ncnc2[nH]cnc12)c1nc2ccc(F)cc2c(=O)n1-c1ccccc1 [Compound D]	1.2 µM	0.54 µM	> 20 µM	4.75 µM	0.35 µM	7.7 µM	0.153 µM	0.987 µM	1 µM	0.0093 µM	0.025 µM	0.303 µM	0.988 µM	0.0009 µM	7.8 µM	0.0049 µM	3.4 µM	2.35 µM
